Measured values from paper PMC8187944, “Discovery of Potent EGFR Inhibitors With 6-Arylureido-4-anilinoquinazoline Derivatives” (Frontiers in Pharmacology, 2021).

How the values were obtained:
[1] = test system: A549 cells; test: Anti-proliferative assay, standard CCK-8 method; type: cell-based, human; details: Homo sapiens, mean ± SD of at least three independent experiments, read-out: Proliferative inhibition (IC50, μM) A549
Source text: All reagents and solvents met the criteria of analytical reagents before use. All cancer cell lines (A549, human non-small-cell lung cell line; HT-29, human colonic adenocarcinoma cell line; MCF-7, human breast cancer cell line) were purchased from Stem Cell Bank, Chinese Academy of Sciences. […] ADP-Glo™ kinase assay kits were provided by Promega (Beijing) Biotech Co., Ltd. (Beijing, China). All kinase subtypes were supplied by SignalChem (BC, Canada).
The designed 4-anilinoquinazoline derivatives were evaluated for their antitumor bioactivities in vitro against three human tumor cell lines (A549, HT-29, and MCF-7) using the standard CCK-8 method. The CCK-8 method is based on WST-8 dye, 2-(2-methoxy-4-nitrophenyl)-3-(4-nitrophenyl)-5-(2,4-disulfophenyl)-2H-tetrazolium. WST-8 can be bio-reduced by dehydrogenases in mitochondria into orange water-soluble formazan products. Briefly, selected cancer cells in the logarithmic growth phase (1 × 10^4) were inoculated in 96-well plates and further cultured in the incubator for 24 h. First, the target compounds were diluted to different concentrations with culture medium with each dilution gradually diluted from the highest concentration solution. Second, the original culture medium was removed after the cells were completely adherent to the wall, and the compounds at various concentrations prepared above were added. In this experiment, a control group and a blank group were set: the former was treated with 0.1% DMSO solution, and the latter was treated with only the culture medium. […] A microplate reader was adopted to record the absorbance at 450 nm, and in this assay, gefitinib, erlotinib, and sorafenib were used as the reference drugs.

[2] = molecular target: T1, EGFR (Homo sapiens, UniProt P00533); test: EGFR kinase inhibition, ADP-Glo assay; type: biochemical
T1 construct: 2 μl (50 ng/ml) of EGFR kinase
Procedure: The EGFR kinase inhibition activities of the target compounds were evaluated by the ADP-Glo™ assay. The ADP-Glo™ kinase detection kit is a luminescence kinase detection approach that detects the amount of ADP produced by the kinase reaction. After ADP is converted into ATP, ATP can be used as the substrate of the luciferase-catalyzed reaction to generate an optical signal, which is positively correlated with kinase activity. […] The above-prepared systems were sealed and incubated at room temperature for 2 h, and 5 μl of ADP-GLO was added to terminate the kinase reaction. Then, the culture plate was sealed and incubated in a thermostatic oscillator for 40 min to fully consume the remaining ATP. The luciferase/luciferin reaction was adopted to determine the newly generated ATP level.

[3] = Aqueous solubility; type: physicochemical; details: in words
[4] = molecular target: FAK (Homo sapiens, UniProt Q05397); test: Kinase spectrum assay (ADP-Glo); details: remaining enzyme activity at 1 μm compound
[5] = molecular target: IRAK4 (Homo sapiens, UniProt Q9NWZ3); test: Kinase spectrum assay (ADP-Glo); details: remaining enzyme activity at 1 μm compound
Chain of IRAK4 (Q9NWZ3 whole entry): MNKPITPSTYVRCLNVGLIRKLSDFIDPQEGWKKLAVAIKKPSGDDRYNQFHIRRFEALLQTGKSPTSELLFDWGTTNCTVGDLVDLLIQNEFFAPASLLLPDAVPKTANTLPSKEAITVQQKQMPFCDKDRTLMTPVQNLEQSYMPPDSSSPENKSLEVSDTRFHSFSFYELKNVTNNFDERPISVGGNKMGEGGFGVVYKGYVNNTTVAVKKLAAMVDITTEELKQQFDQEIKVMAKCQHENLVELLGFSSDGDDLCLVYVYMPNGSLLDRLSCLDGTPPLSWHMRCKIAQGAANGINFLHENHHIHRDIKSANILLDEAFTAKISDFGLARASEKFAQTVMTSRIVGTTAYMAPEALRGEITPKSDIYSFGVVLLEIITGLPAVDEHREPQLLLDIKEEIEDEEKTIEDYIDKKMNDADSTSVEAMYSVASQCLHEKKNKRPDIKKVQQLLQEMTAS

T1 sequence (P00533 25-1210): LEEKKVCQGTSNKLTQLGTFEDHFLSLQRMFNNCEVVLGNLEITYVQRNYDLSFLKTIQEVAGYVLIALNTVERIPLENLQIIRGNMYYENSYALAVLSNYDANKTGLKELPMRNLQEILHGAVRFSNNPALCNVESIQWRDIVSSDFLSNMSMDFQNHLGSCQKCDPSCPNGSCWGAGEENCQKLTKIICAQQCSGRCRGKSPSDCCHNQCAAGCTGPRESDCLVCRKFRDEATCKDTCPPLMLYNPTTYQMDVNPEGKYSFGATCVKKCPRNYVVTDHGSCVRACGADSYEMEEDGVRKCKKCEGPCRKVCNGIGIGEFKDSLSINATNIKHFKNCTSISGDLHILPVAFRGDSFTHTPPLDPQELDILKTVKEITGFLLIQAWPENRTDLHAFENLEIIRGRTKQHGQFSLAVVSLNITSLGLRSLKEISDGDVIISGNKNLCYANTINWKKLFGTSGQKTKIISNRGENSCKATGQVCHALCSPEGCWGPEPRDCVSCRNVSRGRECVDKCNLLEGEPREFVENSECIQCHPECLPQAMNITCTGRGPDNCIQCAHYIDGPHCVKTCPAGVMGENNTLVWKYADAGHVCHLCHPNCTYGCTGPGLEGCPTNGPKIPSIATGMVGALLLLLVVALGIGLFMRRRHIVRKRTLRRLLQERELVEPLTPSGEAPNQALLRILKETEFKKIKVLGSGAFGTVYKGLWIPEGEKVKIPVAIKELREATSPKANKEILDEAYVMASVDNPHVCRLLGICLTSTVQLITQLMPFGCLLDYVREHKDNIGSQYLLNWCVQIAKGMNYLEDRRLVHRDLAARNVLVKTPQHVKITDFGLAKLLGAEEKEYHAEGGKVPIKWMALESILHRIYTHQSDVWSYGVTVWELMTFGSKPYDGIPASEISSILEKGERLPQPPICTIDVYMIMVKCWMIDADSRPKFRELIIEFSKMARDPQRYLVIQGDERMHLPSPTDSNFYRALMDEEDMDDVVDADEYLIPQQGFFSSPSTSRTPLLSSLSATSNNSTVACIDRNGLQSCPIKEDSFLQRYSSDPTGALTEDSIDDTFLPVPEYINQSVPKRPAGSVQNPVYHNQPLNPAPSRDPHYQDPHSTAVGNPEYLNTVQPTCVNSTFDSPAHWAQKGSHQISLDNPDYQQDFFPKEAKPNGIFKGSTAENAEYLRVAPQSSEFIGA
Chain of FAK (Q05397 whole entry): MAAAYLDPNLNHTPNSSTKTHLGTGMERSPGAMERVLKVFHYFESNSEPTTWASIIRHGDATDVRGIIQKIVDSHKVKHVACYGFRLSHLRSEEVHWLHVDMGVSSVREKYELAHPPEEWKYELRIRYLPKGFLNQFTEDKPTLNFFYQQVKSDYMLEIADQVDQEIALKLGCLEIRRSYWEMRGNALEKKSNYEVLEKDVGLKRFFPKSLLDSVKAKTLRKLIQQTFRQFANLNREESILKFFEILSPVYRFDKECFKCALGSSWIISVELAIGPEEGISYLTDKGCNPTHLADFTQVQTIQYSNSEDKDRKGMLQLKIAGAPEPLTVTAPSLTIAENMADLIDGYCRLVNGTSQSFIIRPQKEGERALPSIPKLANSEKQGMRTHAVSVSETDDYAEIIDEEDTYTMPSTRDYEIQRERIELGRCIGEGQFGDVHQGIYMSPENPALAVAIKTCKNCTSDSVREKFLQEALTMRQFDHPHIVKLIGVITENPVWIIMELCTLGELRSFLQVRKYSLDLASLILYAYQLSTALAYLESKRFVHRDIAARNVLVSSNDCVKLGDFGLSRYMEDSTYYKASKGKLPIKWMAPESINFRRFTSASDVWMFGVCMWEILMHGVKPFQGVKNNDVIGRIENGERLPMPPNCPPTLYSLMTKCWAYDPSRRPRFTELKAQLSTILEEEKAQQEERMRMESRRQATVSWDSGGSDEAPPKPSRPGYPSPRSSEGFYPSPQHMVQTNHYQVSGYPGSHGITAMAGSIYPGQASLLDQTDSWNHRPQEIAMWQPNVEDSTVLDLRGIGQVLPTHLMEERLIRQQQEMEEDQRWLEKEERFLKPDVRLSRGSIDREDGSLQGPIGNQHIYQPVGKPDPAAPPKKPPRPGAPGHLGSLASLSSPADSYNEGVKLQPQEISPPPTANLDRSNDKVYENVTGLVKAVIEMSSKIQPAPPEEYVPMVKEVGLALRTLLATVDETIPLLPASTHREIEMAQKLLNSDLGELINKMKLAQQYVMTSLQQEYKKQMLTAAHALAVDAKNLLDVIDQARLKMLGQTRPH

- IC50 [1]: 2.25 ± 0.08 µM
- IC50 ([2]; ADP-Glo, mean ± SD of at least two independent experiments, read-out: Enzymatic inhibition IC50 (nM) EGFR): 17.3 ± 0.54 nM
- Enzyme activity % EGFR ([2]; remaining enzyme activity at 1 μm compound): 10.52 ± 0.26%
- aqueous solubility [3]: soluble
- melting point: 268 to 268.9 °C
- Enzyme activity % FAK [4]: 81.70 ± 2.75%
- Enzyme activity % IRAK4 [5]: 86.33 ± 0.56%
Structure (SMILES): O=C(Nc1ccc(Cl)c(C(F)(F)F)c1)Nc1ccc2ncnc(Nc3cccc(Br)c3)c2c1 [Compound 7i]
